Patent US12168008B2, “Oxabicycloheptanes for modulation of immune response” (LIXTE BIOTECHNOLOGY, INC., priority 2016, dated 2024)
Like-named read-outs stand apart in the source and are kept apart here.

Format: in vivo, human
Conditions: for dose limiting toxicity (reversible increases in serum creatinine or calculated serum creatinine clearance): 3.1 mg/m2
Procedure: Experimental Design: LB-100 was administered intravenously daily for 3 days in 21-day cycles in a 3+3 dose-escalation design. The primary goal was to determine the maximum tolerated dose and recommended phase 2 dose (ClinicalTrials.gov: NCT01837667).
Eligible patients were aged 18 years or older with proven progressive solid tumors who had failed standard treatments. Patients had to have a life expectancy of at least 12 weeks, an ECOG performance status of 0 or 1, and be able to give informed consent. […] They must not have any other uncontrolled systemic disease. Women of childbearing potential had to have a negative serum or urine pregnancy test result.
An open-label, dose-escalation, phase I study was performed to assess the safety, tolerability, and activity of LB-100 administered for 3 consecutive days every 3 weeks. Pharmacokinetic studies were planned at the maximum tolerable dose (MTD). The starting dose, 0.25 mg/m^2, 1/15th of the highest non-severely toxic dose in dogs, and plan of dose escalation was specified by the FDA. The study was approved by the human investigations committee at each study center and is registered at clinicaltrials.gov: NCT01837667.
LB-100 was supplied as a single use solution. Initially, LB-100 was administered in 50 mL of saline over 15 minutes. […] Dose escalation was prohibited within any cohort. Patients were eligible to receive up to 6 cycles of study therapy, unless unacceptable toxicity, disease progression, or inter-current illness required discontinuation. More than 6 cycles were allowed in the absence of progression and toxicity. Because of cardiac and renal toxicity at high doses in animal toxicology studies, patients had extensive monitoring including ECG, MUGA or echocardiogram, cardiac troponins, and BNP prior to every cycle. Blood chemistries, urinalysis, hematologic profile and vital signs were monitored prior to and on day 1, 3, 8, 15, and 22 of each cycle. Laboratory parameters were tabulated by maximum NCI-CTCAE (Version 4.0) severity grade. A safety review committee assessed all clinical data every 2 weeks and approved dose escalation between cohorts.
Doses of LB-100 were escalated in groups of three patients. […] When a potential DLT occurred, three new patients were entered at that dose. If another DLT occurred, three additional patients were treated at the previous non-DLT dose to determine the safety of that level for phase 2 trials.
Response to treatment was assessed using RECIST version 1.1. All patients with measurable disease, who completed 2 cycles of LB-100 and had at least 1 post-baseline tumor assessment, were evaluable for efficacy. Patients receiving any LB-100 were evaluable for safety. The severity of adverse events and laboratory abnormalities is reported according to NCI-CTCAE version 4.0 and coded using Medical Dictionary for Regulatory Activities.

## CN1CCN(C(=O)C2C(C(=O)O)[C@H]3CC[C@@H]2O3)CC1 (some centres unmarked) [LB-100]
0.25-2.33 mg/m^2
  DLT during the first 6 dose levels: no DLT
Grade 1-2
  HEADACHE, patients n (%): 3 (10.3%)
Grade 3
  HEADACHE, patients n (%): 0
Grade 4
  HEADACHE, patients n (%): 0
Grade 5
  ABDOMINAL DISCOMFORT, patients n (%): 0
  ABDOMINAL DISTENSION, patients n (%): 0
  ACCELERATED HYPERTENSION, patients n (%): 0
  ALANINE AMINOTRANSFERASE INCREASED, patients n (%): 0
  ANAEMIA, patients n (%): 0
  ARTHRALGIA, patients n (%): 0
  BLOOD ALKALINE PHOSPHATASE INCREASED, patients n (%): 0
  BLOOD UREA INCREASED, patients n (%): 0
  CANDIDIASIS, patients n (%): 0
  CHEST PAIN, patients n (%): 0
  CHILLS, patients n (%): 0
  CONSTIPATION, patients n (%): 0
  DECREASED APPETITE, patients n (%): 0
  DERMATITIS ACNEIFORM, patients n (%): 0
  DIARRHOEA, patients n (%): 0
  DIZZINESS, patients n (%): 0
  EJECTION FRACTION DECREASED, patients n (%): 0
  ELECTROCARDIOGRAM QT PROLONGED, patients n (%): 0
  GAIT DISTURBANCE, patients n (%): 0
  GASTROINTESTINAL DISORDER, patients n (%): 0
  GENERALISED OEDEMA, patients n (%): 0
  GINGIVAL PAIN, patients n (%): 0
  HEADACHE, patients n (%): 0
  HYPERCALCAEMIA, patients n (%): 0
  HYPERKALAEMIA, patients n (%): 0
  HYPERNATRAEMIA, patients n (%): 0
  HYPERTENSION, patients n (%): 0
  HYPOAESTHESIA, patients n (%): 0
  HYPOALBUMINAEMLA, patients n (%): 0
  HYPOKINESIA, patients n (%): 0
  HYPOTENSION, patients n (%): 0
  HYPOXIA, patients n (%): 0
  INSOMNIA, patients n (%): 0
  MUCOSAL INFLAMMATION, patients n (%): 0
  MUSCLE TWITCHING, patients n (%): 0
  MUSCULAR WEAKNESS, patients n (%): 0
  NAUSEA, patients n (%): 0
  NEUROPATHY PERIPHERAL, patients n (%): 0
  NEUTROPENIA, patients n (%): 0
  OEDEMA PERIPHERAL, patients n (%): 0
  OEDEMA, patients n (%): 0
  PAIN OF SKIN, patients n (%): 0
  PERIPHERAL COLDNESS, patients n (%): 0
  PERIPHERAL SENSORY NEUROPATHY, patients n (%): 0
  PLATELET COUNT DECREASED, patients n (%): 0
  PLEURAL EFFUSION, patients n (%): 0
  PROTEINURIA, patients n (%): 0
  PYREXIA, patients n (%): 0
  SINUS TACHYCARDIA, patients n (%): 0
Daily for 3 days every 3 weeks, i.v.
  recommended phase 2 dose: 2.33 mg/m2
human, in vivo
  Probable or possible study drug related Grade 3 adverse events: 6 (20.7%) patients (%)
  dose limiting toxicity (reversible increases in serum creatinine or calculated serum creatinine clearance): 2/4
In vivo
  symptomatic toxicity: no symptomatic toxicity other than reversible mild to moderate fatigue
  toxicities suggestive of autoimmune activity: no patient experienced toxicities suggestive of autoimmune activity
  dose limiting toxicity (reversible increases in serum creatinine or calculated serum creatinine clearance): Two
